Measured values: patent publication US6939892B2, “Compositions for treating or preventing malaria and method of treating malaria” (Zaidan Hojin Biseibutsu Kagaku Kenkyu Kai, priority 2000, dated 2005)
Counter-ions that a name gives are not always drawn. Like-named read-outs stand apart in the source and are kept apart here.

Experiments:
[1] = system: subclone F28-7 cells of FM3A cell line originating from a mouse mammary tumor; test: Toxicity of test compound against subclone F28-7 cells of FM3A cell line (cell proliferation); assay type: cell-based; settings: for EC50: Mus musculus, FM3A; for Rate (%) of proliferation of cells of the F28-7 cell line: 48 hours
Method: Cells of subclone F28-7 cell line of a mouse mammary tumor, which is a wild type cell line of the FM3A cell line originating from a mouse mammary tumor, were used as the test cells. The culture medium to be used for cultivation of the cells of the subclone F28-7 cell line was prepared by supplementing an ES medium with 2% of a heat-inactivated fetal bovine serum. The cultivation of the subclone F28-7 cell line under test was effected in this serum-supplemented ES medium at 37° C. in air containing 5% CO2.
After the pre-cultivation was effected, the cell density of cells of the subclone F28-7 cell line which had entered the logarithmic proliferation phase was adjusted to a level of 5×10^4 cells/ml by diluting the culture of the cells with a volume of the fresh culture medium. Thus, there was prepared a cell suspension of cells of the subclone F28-7 cell line as cultured.
For the solution of the test compound, there was used the same solution as that which was hereinbefore prepared in the test for the determination of the antimalarial activity of the test compound against the proliferation of malarial parasite.
The culture medium to be used for the cultivation of the subclone F28-7 cell line above mentioned was placed in the individual wells of a multidish 24-wells. Then, for the treated test groups, the solution of the test compound was added in an amount of 5˜10 microliters to the culture medium in each well of the incubation plate so as to adjust a final concentration of the test compound as added to be 1×10^−4 to 1×10^−6 M.
The test was carried out in duplicate or triplicate. On the other hand, for the control test groups (untreated), no test compound was added to each well, but instead thereof a sterilized water, DMF or DMSO was added to each well in an amount of 10 μl. Then, the cell suspension of cells of the subclone F28-7 cell line as already prepared in the above was dispensed in an amount of 990-995 μl to each well by pipetting. The pipetting was effected carefully and gently, so that the cells as added were evenly suspended in the culture medium in each well. Thereafter, the cells of subclone F28-7 cell line were incubated for 48 hours under the aforesaid cultivating conditions. Then, the number of the cells of the subclone F28-7 cell line was counted by means of a microcell counter (CC-108, Toa Medical Electric Co.) for the cell culture as obtained in the individual wells of both the treated test groups and the control test (untreated) groups.
The inhibitory activity of the test compound against the proliferation of cells of the subclone F28-7 cell line was subsequently estimated from such value of the rate (%) of the proliferation of cells of the subclone F28-7 cell line which is defined by the undermentioned equation with reference to the counted number of cells of the subclone F28-7 cell line in the cell culture contained in each well and having been incubated in the presence of the test compound added for the treated test group, and with reference to the counted number of cells of the subclone F28-7 cell line having been incubated in the absence of the test compound for the control test group. The toxicity of the test compound was thus evaluated from the value of the rate (%) of proliferation of cells of the subclone F28-7 cell line so estimated. [formula]

Plasmodium falciparum = test: In vitro test of inhibitory activity against proliferation of malarial parasites in human red blood cells; assay type: cell-based; settings: for Selective toxicity: ratio of EC50 for the F28-7 cell line to EC50 for the malarial parasite (P. falciparum FCR-3 strain); for Rate (%) of proliferation of malarial parasite: 72 hours
Method: In this test Example, two strains of Plasmodium falciparum, namely strain FCR-3 (ATCC 30932) and strain Honduras-1 (ATCC 30950) were used as the malarial parasites to be tested, and each malarial strain was incubated separately in vitro as described below. […] The resulting culture medium as supplemented with the human serum was then adjusted to have a hematocrit level (namely, a ratio of the total volume of the red blood cells to the volume of the liquid culture medium comprising the suspended red blood cells) of 5%, and thereafter the culture medium as adjusted was placed in individual wells of 24-well incubation microplates. The culture medium in each well was inoculated with Plasmodium falciparum under test. The initial rate (%) of infection of the red blood cells with the malarial parasite in individual wells was then adjusted to a value of 0.1% at the start of the incubation. Thereafter, there was carried out the incubation of the red blood cells along with the infecting Plasmodium falciparum. This incubation was effected at 36.5° C. in an atmosphere comprising 5.0% oxygen, 5.0% carbon dioxide and 90% nitrogen.
The culture medium present in each well was daily changed freshly. At the time when the rate (%) of infection of the red blood cells with the malarial parasite increased to reach a value of 4%, the transfer of the incubated cultures to another incubation microplates was conducted. Thus, the cultures of the malarial parasites under test were prepared.
By the way, the rate (%) of infection of the red blood cells with the malarial parasite as above-mentioned was evaluated by a procedure that comprised removing a sample from the culture of the parasitized red blood cells in each well, preparing thin blood film specimen containing the red blood cells from each sample, staining said thin blood film specimen by means of Giemsa staining or Diff-Qick staining method, counting the number of the stained red blood cells as infected with the malarial parasite per one thin blood film, under a microscope (oil immersion; 1,000×), and calculating the rate (%) of infection of the red blood cells with malarial parasite according to the undermentioned equation: [formula]
In turn, the abovementioned culture of the parasitized red blood cells as prepared in the above was subjected to a centrifugation to collect the red blood cells which had been infected with the malarial parasite. The infected red blood cells so collected were washed with an PRMI 1640 medium supplemented with the human serum, and then were added with such red blood cells which were not yet infected with the malarial parasite. Thus, there was prepared such a culture of the malarial parasite having infected the red blood cells, in which the initial rate (%) of infection of the red blood cells with the malarial parasite had firstly been adjusted to a value of 0.3%. The hematocrit level of this culture of the malarial parasite so prepared at this time point was 3%.
On the other hand, the compound to be tested in the present experiments was previously prepared in the form of a solution of each compound dissolved in a sterilized water, dimethylformamide (DMF) or dimethylsulfoxide (DMSO).
(i) The culture medium to be used for incubation of malarial parasite as above-mentioned was placed in individual wells of a multidish 24-wells. Then, for the treated test groups, each solution of the test compound as previously prepared in the above was added in an amount of 5 to 10 microliters (μl) into each well containing said culture medium therein. Then, the concentration of the test compound as added to the culture medium present in the individual wells of the multidish 24-well microplates was adjusted to different values in the individual wells. The test was carried out in duplicate or triplicate. On the other hand, for the control test groups (untreated), no test compound was added to each well, but instead thereof sterilized water, DMF or DMSO was added thereto in an amount of 10 μl.

Solubility in solvents = assay type: physicochemical
ICR mice = test: Acute toxicity, intraperitoneal injection; assay type: in vivo; settings: 14th day, 3 mice per group
Method: (§1) SF2487 substance (Na salt) in the form of a solution dissolved in a physiological saline containing 10% DMSO was administered to ICR mice (5-weeks old, 3 mice per group) in different doses by intraperitoneal injection.

[2] = Acute toxicity, intraperitoneal injection; assay type: in vivo; settings: mouse, in vivo, ip; ICR mice, intraperitoneal administration, 14th day
Method: as §1

[3] = system: Plasmodium berghei NK65 strain; test: In vivo test of antimalarial activity against malarial parasite in infected ICR mice; settings: ICR mice infected with P. berghei NK65, dose of 5 mg/kg, printed 'intravenous injection', once a day on Day 0 and Day 1, blood read on Day 4
Description: As mice for this test, there were used ICR mice (male) of 5-weeks old with body weight of 26-31 g (five mice per group). As the source of the malarial infection for this experiment, murine malarial parasite, Plasmodium berghei NK65 strain was used.
Blood sample was drawn by cardiac puncture from each of the donor ICR mice which had been infected with Plasmodium berghei NK65 strain. […]
For sake of convenience, a time schedule was so set that the time of inoculating the test mice with the malarial parasite by intravenous injection of the cell suspension of the parasitized red blood cells was Day 0. […] For both of the untreated test group and the treated test group, the rate (%) of infection of the red blood cells with the malarial parasite in each of the mouse blood samples was evaluated. […] The rate (%) of inhibition against the proliferation of the malarial parasite used here indicates such value as calculated by the following equation: [formula] where A means the average rate (%) of infection of the red blood cells with the malarial parasite as effected in the untreated test group, and B means the average rate (%) of infection of the red blood cells with the malarial parasite as effected in the treated test group.

[4] = read-out: EC50 values, namely molar concentrations of test compound for the 50% inhibition of proliferation, the F28-7 cell line, F28-7 cell line, 48 hours incubation
[5] = read-out: EC50 values, namely molar concentrations of test compound for the 50% inhibition of proliferation, P. falciparum FCR-3 strain, 72 hours incubation
[6] = 48 h, read-out: EC50 values, namely molar concentrations of test compound for the 50% inhibition of proliferation, the F28-7 cell line
[7] = 1 × 10^−7 Molar test compound in culture medium

Which EC50 [1, 4] does the source give for `C=C[C@H]1C[N@@]2CC[C@H]1C[C@H]2[C@H](O)c1ccnc2ccc(OC)cc12` [Quinine, reference compound] here?
Its EC50 is 100000 nM.

What about the Selective toxicity (Plasmodium falciparum) of the same molecule?
Its Selective toxicity is 910.

And the EC50 (Plasmodium falciparum; [5])?
Its EC50 is 110 nM.

For `C[C@@H]1CC[C@H]2[C@@H](C)C(=O)O[C@@H]3O[C@@]4(C)CC[C@@H]1[C@]32OO4` [Artemisinin, reference compound], which EC50 [1, 4] is on record?
The EC50 was 10000 nM.

What about the EC50 (Plasmodium falciparum; [5]) of the same molecule?
The EC50 was 7.8 nM.

With `OC(c1cc(C(F)(F)F)nc2c(C(F)(F)F)cccc12)C1CCCCN1` (stereo not drawn) [Mefloquine, reference compound] as the molecule, how does the EC50 [1, 4] read?
The EC50 was 2900 nM.

What about the Selective toxicity (Plasmodium falciparum) of the same molecule?
Its Selective toxicity is 91.

And the EC50 (Plasmodium falciparum; [5])?
Its EC50 is 32 nM.

With `CCN(CC)CCCC(C)Nc1ccnc2cc(Cl)ccc12` (stereo not drawn) [Chloroquine, reference compound] as the molecule, how does the EC50 [1, 6] read?
Its EC50 is 32000 nM.

What about the EC50 (Plasmodium falciparum; [5]) of the same molecule?
Its EC50 is 18 nM.

With `CCc1nc(N)nc(N)c1-c1ccc(Cl)cc1` [Pyrimethamine, reference compound] as the molecule, how does the EC50 [1, 4] read?
The EC50 was 120 nM.

What about the Selective toxicity (Plasmodium falciparum) of the same molecule?
The Selective toxicity was 120.

What about the EC50 (Plasmodium falciparum; [5]) of the same molecule?
The EC50 was 1 nM.

With `C=C1OC(O)=C(C(=O)C(OC)C2C(/C=C(\CO)C3CCC(C)C(/C(C)=C/CC4OC(C)(C5CCC(C(O)CC)O5)CC4C)O3)CC(C)C(O)C2CO)C1=O` (stereo not drawn) [SF2487 substance Na salt] as the molecule, how does the solubility (Solubility in solvents; in chloroform, ethyl acetate and dimethylsulfoxide) read?
The solubility was “soluble”.

And the solubility (Solubility in solvents; in ethanol)?
The solubility was “slightly soluble”.

And the solubility (Solubility in solvents; in water)?
The solubility was “hardly soluble”.

What about the “Rate (%) of proliferation of cells of the F28-7 cell line” value (shortened to “Rate (%) … of the F28-7 cell line”) ([1]; 1 × 10^−5 Molar test compound in culture medium) of the same molecule?
Its value is 0%.

What about the “Rate (%) … of the F28-7 cell line” value ([1]; 1 × 10^−6 Molar test compound in culture medium) of the same molecule?
The value was 58%.

What about the “Rate (%) … of the F28-7 cell line” value [1, 7] of the same molecule?
The value was 100%.

What about the “Rate (%) … of the F28-7 cell line” value ([1]; 3 + 10^−5 Molar test compound in culture medium) of the same molecule?
The value was 0%.

What about the “Rate (%) … of the F28-7 cell line” value ([1]; 3 × 10^−6 Molar test compound in culture medium) of the same molecule?
The value was 45%.

And the “Rate (%) … of the F28-7 cell line” value ([1]; 3 × 10^−7 Molar test compound in culture medium)?
The value was 100%.

And the “Rate (%) … of the F28-7 cell line” value ([1]; 7 × 10^−6 Molar test compound in culture medium)?
Its value is 10%.

What about the “Rate (%) … of the F28-7 cell line” value ([1]; 7 × 10^−7 Molar test compound in culture medium) of the same molecule?
The value was 70%.

And the EC50 [1, 6]?
The EC50 was 1600 nM.

What about the EC50 ([1]; read-out: concentration necessary to inhibit the proliferation of cells of the F28-7 cell line by 50% (EC50)) of the same molecule?
Its EC50 is 1600 nM.

What about the mortality (ICR mice; 12.5 mg/kg intraperitoneal injection) of the same molecule?
Its mortality is “all three mice survived”.

And the mortality (ICR mice; 25 mg/kg intraperitoneal injection)?
The mortality was “one mouse died among three mice”.

What about the LD50 at 14 days [2] of the same molecule?
Its LD50 at 14 days is no less than 25 mg/kg.

And the “rate (%) of inhibition against the proliferation of the malarial parasite” value [3]?
Its value is 80%.

And the “Rate (%) of proliferation of malarial parasite” value (from here on “Rate (%) … of malarial parasite”) (Plasmodium falciparum; [7])?
The value was 0%.

What about the “Rate (%) … of malarial parasite” value (Plasmodium falciparum; 1 × 10^−8 Molar test compound in culture medium) of the same molecule?
Its value is 10%.

And the “Rate (%) … of malarial parasite” value (Plasmodium falciparum; 1 × 10^−9 Molar test compound in culture medium)?
Its value is 60%.

What about the “Rate (%) … of malarial parasite” value (Plasmodium falciparum; 1 × 10^−10 Molar test compound in culture medium) of the same molecule?
The value was 100%.

And the “Rate (%) … of malarial parasite” value (Plasmodium falciparum; 3 × 10^−8 Molar test compound in culture medium)?
Its value is 5%.

What about the “Rate (%) … of malarial parasite” value (Plasmodium falciparum; 3 × 10^−9 Molar test compound in culture medium) of the same molecule?
The value was 40%.

What about the “Rate (%) … of malarial parasite” value (Plasmodium falciparum; 3 × 10^−10 Molar test compound in culture medium) of the same molecule?
Its value is 100%.

What about the “Rate (%) … of malarial parasite” value (Plasmodium falciparum; 7 × 10^−8 Molar test compound in culture medium) of the same molecule?
The value was 0%.

What about the “Rate (%) … of malarial parasite” value (Plasmodium falciparum; 7 × 10^−9 Molar test compound in culture medium) of the same molecule?
The value was 25%.

And the “Rate (%) … of malarial parasite” value (Plasmodium falciparum; 7 × 10^−10 Molar test compound in culture medium)?
The value was 85%.

What about the EC50 (Plasmodium falciparum; Plasmodium falciparum, Erythrocyte, read-out: concentration necessary to inhibit the proliferation of malarial parasite by 50% (EC50)) of the same molecule?
Its EC50 is 2 nM.

What about the Selective toxicity (Plasmodium falciparum) of the same molecule?
The Selective toxicity was 800.
